Experimental data taken from patent US20070259909A1, “Novel Difluoroethoxy-Substituted Hydroxy-6-Phenylphenanthridines and Their Use as Pde4 Inhibitors” (ALTANA PHARMA AG, priority 2004, published 2007).

Target: T1, PDE4B2 (Homo sapiens, UniProt Q07343)
T1 construct: made in house; host or cells: SF21 insect cells (baculovirus; virus generated in SF9 cells)
Assay: PDE4B2 [3H]cAMP SPA enzyme assay (inhibition of PDE4 activity)
Format: biochemical
Conditions: recombinant PDE4B2 (GB no. M97515) expressed in SF21 insect cells; cAMP substrate; 37° C., 15 min; read-out: -log IC50(mol/l), Inhibition of the PDE4 activity (converted)
Method: The PDE4B2 (GB no. M97515) was a gift of Prof. M. Conti (Stanford University, USA). It was amplified from the original plasmid (pCMV5) via PCR with primers Rb9 (5′-[…]-3′) and Rb10 (5′-[…]-3′) and cloned into the pCR-Bac vector (Invitrogen, Groningen, NL).
The recombinant baculovirus was prepared by means of homologous recombination in SF9 insect cells. The expression plasmid was cotransfected with Bac-N-Blue (Invitrogen, Groningen, NL) or Baculo-Gold DNA (Pharmingen, Hamburg) using a standard protocol (Pharmingen, Hamburg). Wt virus-free recombinant virus supernatant was selected using plaque assay methods. After that, high-titre virus supernatant was prepared by amplifying 3 times. […]
The SF21 insect cells were resuspended, at a concentration of approx. 10^7 cells/ml, in ice-cold (° C.) homogenization buffer (20 mM Tris, pH 8.2, containing the following additions: 140 mM NaCl, 3.8 mM KCl, 1 mM EGTA, 1 mM MgCl2, 10 mM P-mercaptoethanol, 2 mM benzamidine, 0.4 mM Pefablock, 10 μM leupeptin, […] pepstatin A, 5 μM trypsin inhibitor) and disrupted by ultrasonication. […] The protein content was determined by the Bradford method (BioRad, Munich) using BSA as the standard. […]
Representative inhibitory values determined for the compounds according to the invention follow from the following table A, in which the numbers of the compounds correspond to the numbers of the Examples.

T1 sequence (Q07343 1-564 isoform Q07343-2): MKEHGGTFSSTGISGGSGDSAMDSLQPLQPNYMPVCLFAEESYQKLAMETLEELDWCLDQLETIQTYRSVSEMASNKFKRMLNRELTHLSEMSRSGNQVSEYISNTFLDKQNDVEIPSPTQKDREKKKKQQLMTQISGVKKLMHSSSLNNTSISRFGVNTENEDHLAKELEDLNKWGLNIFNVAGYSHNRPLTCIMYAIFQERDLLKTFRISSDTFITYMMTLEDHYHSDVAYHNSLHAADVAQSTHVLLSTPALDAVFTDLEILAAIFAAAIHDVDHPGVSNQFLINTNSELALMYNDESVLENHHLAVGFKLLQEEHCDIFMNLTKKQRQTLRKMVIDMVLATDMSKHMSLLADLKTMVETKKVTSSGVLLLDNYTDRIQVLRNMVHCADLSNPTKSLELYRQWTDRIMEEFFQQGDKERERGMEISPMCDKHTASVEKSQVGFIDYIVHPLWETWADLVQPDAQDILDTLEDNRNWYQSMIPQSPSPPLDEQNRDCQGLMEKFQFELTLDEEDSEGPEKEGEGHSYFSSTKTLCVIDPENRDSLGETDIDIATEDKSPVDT

Row | IC50 | SMILES
1 | 0.708 nM | COc1cc2c(cc1OCC(F)F)C1CC(O)CCC1N=C2c1ccc(F)cc1 (racemic) [Compound 1, (2RS,4aRS,10bRS)-9-(2,2-Difluoroethoxy)-6(4fluorophenyl)-8-methoxy-(1,2,3,4,4a,10b)-hexahydrophenanthridin-2-ol]
2 | 1.82 nM | COc1cc2c(cc1OCC(F)F)[C@H]1C[C@H](O)CC[C@H]1N=C2c1ccc(C#N)cc1 (racemic) [Compound 3, 4-[(2RS,4aRS,10bRS)-9-(2,2-Difluoro-ethoxy)-2-hydroxy-8-methoxy-1,2,3,4,4a,10b-hexahydro-phenanthridin-6-yl]-benzonitrile]
